Measurements: publication PMC11589570, “Critical assessment of LC3/GABARAP ligands used for degrader development and ligandability of LC3/GABARAP binding pockets” (Nature Communications, 2024)
Read-outs that look alike come from different tables or passages of the source.

Target: LC3B (Homo sapiens, UniProt Q9GZQ8)
Conditions: for CSP: LC3B:ligand molar ratio 1:2; for 3D Mapping code: molar ratio 1:2

## O=C1Nc2ccc(I)cc2C1=Cc1cc(Br)c(O)c(Br)c1 [compound 4]
  Kd: ≥ 200 µM
I34 HN resonance, molar ratio 10O5:LC3B 1
  CSP induced: 0.019
I34 HN resonance, molar ratio 10O5:LC3B 2
  CSP induced: 0.03102
I34 HN resonance, molar ratio 10O5:LC3B 8
  CSP induced: 0.06113
K51 HN resonance, molar ratio 10O5:LC3B 1
  CSP induced: 0.02725
K51 HN resonance, molar ratio 10O5:LC3B 2
  CSP induced: 0.0413
K51 HN resonance, molar ratio 10O5:LC3B 8
  CSP induced: 0.0854
L82 HN resonance, molar ratio 10O5:LC3B 1
  CSP induced: 0.01304
L82 HN resonance, molar ratio 10O5:LC3B 2
  CSP induced: 0.03131
L82 HN resonance, molar ratio 10O5:LC3B 8
  CSP induced: 0.0642
LC3B residue A75
  CSP: 0.00342 ppm
LC3B residue A78
  CSP: 0.00654 ppm
LC3B residue A114
  CSP: 0.006 ppm
LC3B residue D19
  CSP: 0.011 ppm
LC3B residue D48
  CSP: 0.026 ppm
  3D Mapping code: Light green (intermediate (SD < CSP <2xSD))
LC3B residue D56
  CSP: 0.017 ppm
  3D Mapping code: Light green (intermediate (SD < CSP <2xSD))
LC3B residue D104
  CSP: 0.00224 ppm
LC3B residue D106
  CSP: 0.00462 ppm
LC3B residue E14
  CSP: 0.00184 ppm
LC3B residue E18
  CSP: 0.00544 ppm
LC3B residue E25
  CSP: 0.018 ppm
  3D Mapping code: Light green (intermediate (SD < CSP <2xSD))
LC3B residue E36
  CSP: 0.023 ppm
  3D Mapping code: Light green (intermediate (SD < CSP <2xSD))
LC3B residue E41
  CSP: 0.002 ppm
LC3B residue E62
  CSP: 0.016 ppm
  3D Mapping code: Light green (intermediate (SD < CSP <2xSD))
LC3B residue E97
  CSP: 0.013 ppm
LC3B residue E100
  CSP: 0.015 ppm
LC3B residue E102
  CSP: 0.00152 ppm
LC3B residue E105
  CSP: 0.00355 ppm
LC3B residue E117
  CSP: 0.010 ppm
LC3B residue F07
  CSP: 0.011 ppm
LC3B residue F13
  CSP: 0.00221 ppm
LC3B residue F52
  CSP: 0.070 ppm
  3D Mapping code: Orange (strong (2xSD <CSP))
LC3B residue F108
  CSP: 0.00424 ppm
LC3B residue F119
  CSP: 0.003 ppm
LC3B residue G40, estimated
  CSP: 0.006 ppm
LC3B residue G85
  3D Mapping code: Light green (intermediate (SD < CSP <2xSD))
LC3B residue G107
  CSP: 0.005 ppm
LC3B residue H27
  CSP: 0.018 ppm
  3D Mapping code: Light green (intermediate (SD < CSP <2xSD))
LC3B residue H57
  CSP: 0.022 ppm
  3D Mapping code: Light green (intermediate (SD < CSP <2xSD))
LC3B residue H86
  3D Mapping code: Light green (intermediate (SD < CSP <2xSD))
LC3B residue I23
  CSP: 0.018 ppm
  3D Mapping code: Light green (intermediate (SD < CSP <2xSD))
LC3B residue I31
  CSP: 0.020 ppm
  3D Mapping code: Light green (intermediate (SD < CSP <2xSD))
LC3B residue I34
  CSP: 0.026 ppm
  3D Mapping code: Light green (intermediate (SD < CSP <2xSD))
LC3B residue I35
  CSP: 0.011 ppm
LC3B residue I64
  CSP: 0.035 ppm
  3D Mapping code: Orange (strong (2xSD <CSP))
LC3B residue I66
  CSP: 0.00535 ppm
LC3B residue I67
  CSP: 0.022 ppm
  3D Mapping code: Light green (intermediate (SD < CSP <2xSD))
LC3B residue I95
  3D Mapping code: Light green (intermediate (SD < CSP <2xSD))
LC3B residue K08
  CSP: 0.006 ppm
LC3B residue K30
  CSP: 0.022 ppm
  3D Mapping code: Light green (intermediate (SD < CSP <2xSD))
LC3B residue K39
  CSP: 0.008 ppm
LC3B residue K42
  CSP: 0.00565 ppm
LC3B residue K49
  CSP: 0.017 ppm
  3D Mapping code: Light green (intermediate (SD < CSP <2xSD))
LC3B residue K51
  CSP: 0.037 ppm
  3D Mapping code: Orange (strong (2xSD <CSP))
LC3B residue K65
  CSP: 0.004 ppm
LC3B residue K103
  CSP: 0.011 ppm
LC3B residue L22
  CSP: 0.009 ppm
LC3B residue L44
  CSP: 0.00371 ppm
LC3B residue L47
  CSP: 0.022 ppm
  3D Mapping code: Light green (intermediate (SD < CSP <2xSD))
LC3B residue L53
  CSP: 0.052 ppm
  3D Mapping code: Orange (strong (2xSD <CSP))
LC3B residue L63
  CSP: 0.011 ppm
LC3B residue L71
  CSP: 0.011 ppm
LC3B residue L73
  CSP: 0.011 ppm
LC3B residue L81
  3D Mapping code: Light green (intermediate (SD < CSP <2xSD))
LC3B residue L82
  3D Mapping code: Light green (intermediate (SD < CSP <2xSD))
LC3B residue L109
  CSP: 0.00462 ppm
LC3B residue M01, estimated
  CSP: 0.002 ppm
LC3B residue M60
  CSP: 0.024 ppm
  3D Mapping code: Light green (intermediate (SD < CSP <2xSD))
LC3B residue M111
  CSP: 0.018 ppm
  3D Mapping code: Light green (intermediate (SD < CSP <2xSD))
LC3B residue N59
  CSP: 0.072 ppm
  3D Mapping code: Orange (strong (2xSD <CSP))
LC3B residue N74
  CSP: 0.002 ppm
LC3B residue N76
  CSP: 0.00173 ppm
LC3B residue N84
  3D Mapping code: Light green (intermediate (SD < CSP <2xSD))
LC3B residue P02, estimated
  CSP: 0.002 ppm
LC3B residue P28, estimated
  CSP: 0.016 ppm
LC3B residue P28, CSP estimated
  3D Mapping code: Light green (intermediate (SD < CSP <2xSD))
LC3B residue P32, estimated
  CSP: 0.024 ppm
LC3B residue P32, CSP estimated
  3D Mapping code: Light green (intermediate (SD < CSP <2xSD))
LC3B residue P45, estimated
  CSP: 0.005 ppm
LC3B residue P55, estimated
  CSP: 0.025 ppm
LC3B residue P55, CSP estimated
  3D Mapping code: Light green (intermediate (SD < CSP <2xSD))
LC3B residue Q09
  CSP: 0.000424 ppm
LC3B residue Q15
  CSP: 0.00358 ppm
LC3B residue Q26
  CSP: 0.017 ppm
  3D Mapping code: Light green (intermediate (SD < CSP <2xSD))
LC3B residue Q43
  CSP: 0.00371 ppm
LC3B residue Q72
  CSP: 0.009 ppm
LC3B residue Q77
  CSP: 0.005 ppm
LC3B residue Q116
  CSP: 0.00122 ppm
LC3B residue R10
  CSP: 0.005 ppm
LC3B residue R11
  CSP: 0.003 ppm
LC3B residue R16
  CSP: 0.013 ppm
LC3B residue R21
  CSP: 0.026 ppm
  3D Mapping code: Light green (intermediate (SD < CSP <2xSD))
LC3B residue R24
  CSP: 0.014 ppm
LC3B residue R37
  CSP: 0.016 ppm
LC3B residue R68
  CSP: 0.032 ppm
  3D Mapping code: Orange (strong (2xSD <CSP))
LC3B residue R69
  CSP: 0.020 ppm
  3D Mapping code: Light green (intermediate (SD < CSP <2xSD))
LC3B residue R70
  CSP: 0.032 ppm
  3D Mapping code: Orange (strong (2xSD <CSP))
LC3B residue S03, estimated
  CSP: 0.002 ppm
LC3B residue S61
  CSP: 0.017 ppm
  3D Mapping code: Light green (intermediate (SD < CSP <2xSD))
LC3B residue S87
  3D Mapping code: Orange (strong (2xSD <CSP))
LC3B residue S90
  3D Mapping code: Orange (strong (2xSD <CSP))
LC3B residue S92
  3D Mapping code: Orange (strong (2xSD <CSP))
LC3B residue S96
  CSP: 0.039 ppm
  3D Mapping code: Orange (strong (2xSD <CSP))
LC3B residue S101
  CSP: 0.011 ppm
LC3B residue S115
  CSP: 0.008 ppm
LC3B residue T06
  CSP: 0.00323 ppm
LC3B residue T12
  CSP: 0.00666 ppm
LC3B residue T29, estimated
  CSP: 0.016 ppm
LC3B residue T29, CSP estimated
  3D Mapping code: Light green (intermediate (SD < CSP <2xSD))
LC3B residue T50
  CSP: 0.022 ppm
  3D Mapping code: Light green (intermediate (SD < CSP <2xSD))
LC3B residue T93
  3D Mapping code: Orange (strong (2xSD <CSP))
LC3B residue T118
  CSP: 0.005 ppm
LC3B residue V17
  CSP: 0.009 ppm
LC3B residue V20
  CSP: 0.010 ppm
LC3B residue V33
  CSP: 0.029 ppm
  3D Mapping code: Light green (intermediate (SD < CSP <2xSD))
LC3B residue V46
  CSP: 0.008 ppm
LC3B residue V54
  CSP: 0.049 ppm
  3D Mapping code: Orange (strong (2xSD <CSP))
LC3B residue V58
  CSP: 0.034 ppm
  3D Mapping code: Orange (strong (2xSD <CSP))
LC3B residue V83
  3D Mapping code: Orange (strong (2xSD <CSP))
LC3B residue V89
  3D Mapping code: Light green (intermediate (SD < CSP <2xSD))
LC3B residue V91, CSP estimated
  3D Mapping code: Orange (strong (2xSD <CSP))
LC3B residue V98
  CSP: 0.013 ppm
LC3B residue V112
  CSP: 0.027 ppm
  3D Mapping code: Light green (intermediate (SD < CSP <2xSD))
LC3B residue Y38
  CSP: 0.00356 ppm
LC3B residue Y99
  CSP: 0.00251 ppm
LC3B residue Y110
  CSP: 0.037 ppm
  3D Mapping code: Orange (strong (2xSD <CSP))
LC3B residue Y113
  CSP: 0.013 ppm
N59 HN resonance, molar ratio 10O5:LC3B 1
  CSP induced: 0.03127
N59 HN resonance, molar ratio 10O5:LC3B 2
  CSP induced: 0.08027
N59 HN resonance, molar ratio 10O5:LC3B 8
  CSP induced: 0.1884
S90 HN resonance, molar ratio 10O5:LC3B 1
  CSP induced: 0.01709
S90 HN resonance, molar ratio 10O5:LC3B 2
  CSP induced: 0.04125
S90 HN resonance, molar ratio 10O5:LC3B 8
  CSP induced: 0.08089
Y110 HN resonance, molar ratio 10O5:LC3B 1
  CSP induced: 0.0222
Y110 HN resonance, molar ratio 10O5:LC3B 2
  CSP induced: 0.03845
Y110 HN resonance, molar ratio 10O5:LC3B 8
  CSP induced: 0.0862
